ChEMBL document CHEMBL1201862, “PubChem BioAssay data set” (2004)
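Tested at 5 concentrations; 48 h exposure; 96-well plates; endpoints linearly interpolated, else capped at highest concentration. GI50 is the concentration that inhibits growth by half.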 Active and inactive are the calls of the source. Cut-off read from the data, not from the text of the source: active = GI50 up to about 1.1 µM and inactive = higher.

Key:
Assay in all cases: NCI-60 cell line screen, 48 h
[1] = system: SK-MEL-5
[2] = system: Malme-3M
[3] = system: HCT-116
[4] = system: UACC-62
[5] = system: KM12
[6] = system: SW-620
[7] = system: DMS-273
[8] = system: HCC 2998
[9] = system: UO-31
[10] = system: ACHN
[11] = system: COLO 205
[12] = system: SNB-75
[13] = system: SNB-19
[14] = system: HOP-62
[15] = system: SK-MEL-2
[16] = system: SK-MEL-28
[17] = system: SF-295
[18] = system: NCI-H226
[19] = system: OVCAR-3
[20] = system: HL-60
[21] = system: NCI-H460
[22] = system: 786-0
[23] = system: OVCAR-8
[24] = system: OVCAR-4
[25] = system: DLD-1
[26] = system: NCI-H522
[27] = system: OVCAR-5
[28] = system: U-251
[29] = system: M19-MEL
[30] = system: SF-268
[31] = system: LXFL 529
[32] = system: RPMI-8226
[33] = system: CCRF-CEM
[34] = system: IGROV-1
[35] = system: CAKI-1
[36] = system: HCT-15
[37] = system: UACC-257
[38] = system: NCI-H23
[39] = system: A549
[40] = system: TK-10
[41] = system: K562
[42] = system: SR
[43] = system: M14
[44] = system: MOLT-4
[45] = system: SF-539
[46] = system: DMS-114
[47] = system: HT-29
[48] = system: KM-20L2
[49] = system: HOP-92

N#Cc1cccc(-n2[nH]c(=O)ccc2=O)c1
GI50 [1]: > 100 µM (inactive)
GI50 [2]: > 100 µM (inactive)
GI50 [3]: > 100 µM (inactive)
GI50 [4]: > 100 µM (inactive)
GI50 [5]: > 100 µM (inactive)
GI50 [6]: > 100 µM (inactive)
GI50 [7]: > 100 µM (inactive)
GI50 [8]: > 100 µM (inactive)
GI50 [9]: > 100 µM (inactive)
GI50 [10]: > 100 µM (inactive)
GI50 [11]: > 100 µM (inactive)
GI50 [12]: 59.7 µM (inactive)
GI50 [13]: > 100 µM (inactive)
GI50 [14]: > 100 µM (inactive)
GI50 [15]: > 100 µM (inactive)
GI50 [16]: > 100 µM (inactive)
GI50 [17]: > 100 µM (inactive)
GI50 [18]: > 100 µM (inactive)
GI50 [19]: > 100 µM (inactive)
GI50 [20]: > 100 µM (inactive)
GI50 [21]: > 100 µM (inactive)
GI50 [22]: > 100 µM (inactive)
GI50 [23]: > 100 µM (inactive)
GI50 [24]: > 100 µM (inactive)
GI50 [25]: > 100 µM (inactive)
GI50 [26]: > 100 µM (inactive)
GI50 [27]: > 100 µM (inactive)
GI50 [28]: > 100 µM (inactive)
GI50 [29]: > 100 µM (inactive)
GI50 [30]: > 100 µM (inactive)
GI50 [31]: > 100 µM (inactive)
GI50 [32]: > 100 µM (inactive)
GI50 [33]: > 100 µM (inactive)
GI50 [34]: > 100 µM (inactive)
GI50 [35]: > 100 µM (inactive)
GI50 [36]: > 100 µM
GI50 [37]: > 100 µM (inactive)
GI50 [38]: > 100 µM (inactive)
GI50 [39]: > 100 µM (inactive)
GI50 [40]: > 100 µM (inactive)
GI50 [41]: > 100 µM (inactive)
GI50 [42]: > 100 µM (inactive)
GI50 [43]: > 100 µM (inactive)
GI50 [44]: > 100 µM (inactive)
GI50 [45]: > 100 µM (inactive)
GI50 [46]: > 100 µM (inactive)
GI50 [47]: > 100 µM (inactive)
GI50 [48]: > 100 µM (inactive)
GI50 [49]: > 100 µM (inactive)
